These results are taken from EPA's ToxRefDB 2.

As a reminder, the LOAEL is the lowest tested level that showed an adverse finding. The term NOAEL denotes the highest dose or exposure tested at which no adverse effect was seen.

Data set [1] deals with rabbit. The note with it: Prenatal developmental toxicity study, new zealand white, Oral, Gavage/Intubation, dose end: 18 GD.
The subject of data set [2] is rat. The note with it: Prenatal developmental toxicity study, sprague dawley, Oral, Gavage/Intubation, dose end: 15 GD.
The subject of data set [3] is rat. Conditions: Prenatal developmental toxicity study, sprague dawley, Inhalation, Whole-Body, dose end: 15 GD.
Data set [4] deals with rat. The note with it: Prenatal developmental toxicity study, fischer, Inhalation, Whole-Body, dose end: 15 GD.
Data set [5] deals with rabbit. Conditions: Prenatal developmental toxicity study, new zealand white, Inhalation, Whole-Body, dose end: 18 GD.
The test system of data set [6] is rat. Conditions: Prenatal developmental toxicity study, sprague dawley, Inhalation, Whole-Body, dose end: 15 GD. This is another data set of the same source.
Data set [7] relates to rabbit. Conditions: Prenatal developmental toxicity study, dutch, Inhalation, Whole-Body, dose end: 18 GD.
Data set [8] has as its system rat. The note with it: Combined chronic toxicity/carcinogenicity, fischer, Oral, Feed, dose end: 2 year.
Data set [9] has as its system mouse. Conditions: Prenatal developmental toxicity study, cd1, Oral, Gavage/Intubation, dose end: 17 GD.
Data set [10] deals with rat. The note with it: Combined chronic toxicity/carcinogenicity, fischer, Oral, Feed, dose end: 24 month.
Data set [11] has as its system dog. The note with it: Chronic toxicity, beagle, Oral, Feed, dose end: 52 week.
Data set [12] relates to mouse. Conditions: Carcinogenicity, cd1, Oral, Feed, dose end: 90 week.
The mark [13] stands for this setting: group: developmental, developmental / developmental malformation / bone / full supernumerary.
Where [14] appears, read: group: maternal, systemic / in life observation / body weight / body weight gain + systemic / in life observation / food consumption / food consumption.
The mark [15] stands for this setting: group: maternal, systemic / in life observation / body weight / body weight gain + systemic / in life observation / food consumption / food consumption + ….
The mark [16] stands for this setting: group: developmental, developmental / developmental malformation / bone / bent + developmental / developmental malformation / bone / full supernumerary + ….
Where [17] appears, read: group: maternal, systemic / in life observation / body weight / body weight gain.
Setting [18] is: group: maternal, systemic / in life observation / body weight / body weight gain + systemic / in life observation / clinical signs / urine staining - ….
Where [19] appears, read: group: developmental, developmental / developmental malformation / bone / wavy + developmental / developmental malformation / general / [other] + developmental / ….
Where [20] appears, read: group: developmental, developmental / developmental malformation / general / [other] + systemic / in life observation / body weight / fetal weight.
The mark [21] stands for this setting: group: maternal, reproductive / reproductive performance / resorptions / resorptions.
Where [22] appears, read: group: developmental, developmental / developmental malformation / bone / [other] + developmental / developmental malformation / bone / bipartite ossification + ….
Where [23] appears, read: group: developmental, developmental / developmental malformation / bone / incomplete ossification + developmental / developmental malformation / bone / unossified.
Where [24] appears, read: group: maternal, reproductive / reproductive performance / implantations / implantations + systemic / hematology / erythrocyte (rbc) count differential / ….
[25] abbreviates: group: maternal, systemic / organ weight / liver / absolute.
The mark [26] stands for this setting: group: developmental, developmental / developmental malformation / bone / [other] + developmental / developmental malformation / bone / absent + developmental / ….
The mark [27] stands for this setting: group: maternal, reproductive / reproductive performance / estrous cycle / corpora lutea + reproductive / reproductive performance / implantations / ….
[28] abbreviates: group: developmental, developmental / developmental malformation / bone / [other] + developmental / developmental malformation / bone / fused + developmental / ….
The mark [29] stands for this setting: group: developmental, developmental / developmental malformation / bone / [other] + developmental / developmental malformation / heart / [other] + systemic / in ….
Setting [30] is: group: developmental, developmental / developmental malformation / bone / delayed ossification + developmental / developmental malformation / bone / misaligned + ….
The mark [31] stands for this setting: group: maternal, reproductive / reproductive performance / postimplantation loss / postimplantation loss + systemic / hematology / hemoglobin (hgb) / ….
[32] abbreviates: group: cholinesterase, cholinesterase / cholinesterase / cholinesterase / erythrocyte cholinesterase (che).
Where [33] appears, read: group: systemic, systemic / pathology microscopic / stomach / mineralization + systemic / in life observation / body weight / body weight + systemic / in ….
[34] abbreviates: group: developmental, systemic / in life observation / body weight / fetal weight.
Setting [35] is: group: maternal, reproductive / reproductive performance / postimplantation loss / postimplantation loss + systemic / in life observation / body weight / ….
Setting [36] is: group: cholinesterase, cholinesterase / cholinesterase / cholinesterase / plasma cholinesterase (che).
Setting [37] is: group: systemic, systemic / clinical chemistry / alanine aminotransferase (alt/sgpt) / alanine aminotransferase (alt/sgpt) + systemic / clinical chemistry / ….
Where [38] appears, read: group: cholinesterase, cholinesterase / cholinesterase / cholinesterase / plasma cholinesterase (che) + cholinesterase / cholinesterase / cholinesterase / ….
The mark [39] stands for this setting: group: systemic, systemic / hematology / erythrocyte (rbc) count differential / erythrocyte (rbc) + systemic / hematology / hematocrit (hct) / hematocrit (….
Setting [40] is: group: cholinesterase, cholinesterase / cholinesterase / cholinesterase / brain cholinesterase (che) + cholinesterase / cholinesterase / cholinesterase / ….
The mark [41] stands for this setting: group: systemic, systemic / hematology / mean corpuscular (cell) volume (mcv) / mean corpuscular (cell) volume (mcv) + systemic / hematology / mean ….

As for `O=C(O)COc1ccc(Cl)cc1Cl.OCCNCCO` [2,4-Dichlorophenoxyacetic acid diethanolamine], the LEL is 60 mg/kg/day in [1] (setting [13]), 30 mg/kg/day in [1] (setting [14]), 75 mg/kg/day in [2] (setting [16]) and 75 mg/kg/day in data set [2] (setting [17]). The LOAEL in [1] (setting [13]) is over 60 mg/kg/day; in data set [1] (setting [14]) it was 30 mg/kg/day; in data set [2] (setting [16]) it was 75 mg/kg/day; in [2] (setting [17]), 75 mg/kg/day. In addition, the NEL was determined as 30 mg/kg/day in [1] (setting [13]), 15 mg/kg/day in data set [1] (setting [15]), 15 mg/kg/day in [2] (setting [16]) and 15 mg/kg/day in [2] (setting [18]). The NOAEL was at least 60 mg/kg/day in data set [1] (setting [13]), 15 mg/kg/day in data set [1] (setting [15]), 15 mg/kg/day in [2] (setting [16]) and 15 mg/kg/day in [2] (setting [18]).

In the case of `CCOCCOC(C)=O` [2-Ethoxyethyl acetate], the LOAEL in data set [3] (setting [19]) was over 600 ppm; in [3] (setting [21]), over 600 ppm; in data set [4] (setting [22]) it was over 300 ppm; in data set [4] (setting [24]), over 300 ppm; in [5] (setting [26]) it was over 300 ppm; in data set [5] (setting [27]) it was over 300 ppm. Also, the LOAEL in [6] (setting [28]) is over 600 mg/kg/day; in [6] (setting [21]) it was over 600 mg/kg/day; in data set [7] (setting [30]) it was over 400 ppm; in data set [7] (setting [31]), over 400 ppm. The NOAEL is at least 600 ppm in [3] (setting [19]); at least 600 ppm in data set [3] (setting [21]); at least 300 ppm in [4] (setting [22]); at least 300 ppm in [4] (setting [24]); at least 300 ppm in [5] (setting [26]); at least 300 ppm in data set [5] (setting [27]). The NOAEL in [6] (setting [28]) is at least 600 mg/kg/day; in data set [6] (setting [21]) it was at least 600 mg/kg/day; in data set [7] (setting [30]) it was at least 400 ppm; in [7] (setting [31]) it was at least 400 ppm. Further, the LEL was 130 ppm in data set [3] (setting [20]); 390 ppm in [3] (setting [21]); 50 ppm in data set [4] (setting [23]); 50 ppm in data set [4] (setting [25]); 100 ppm in [5] (group: developmental, developmental / developmental malformation / bone / incomplete ossification + developmental / developmental malformation / bone / misshapen…); 100 ppm in data set [5] (group: maternal, systemic / hematology / platelet / platelet + systemic / in life observation / body weight / body weight gain + systemic / in life …). Further, the LEL in [6] (setting [29]) is 130 mg/kg/day; in data set [6] (setting [21]) it was 390 mg/kg/day; in data set [7] (group: developmental, developmental / developmental malformation / bone / delayed ossification + developmental / developmental malformation / spleen / pale + …), 100 ppm; in data set [7] (setting [31]), 400 ppm. The NEL was under 130 ppm in [3] (setting [20]); 130 ppm in [3] (setting [21]); under 50 ppm in [4] (setting [23]); under 50 ppm in data set [4] (setting [25]); 50 ppm in data set [5] (setting [26]); 50 ppm in [5] (setting [27]). Besides, the NEL in data set [6] (setting [29]) is under 130 mg/kg/day; in data set [6] (setting [21]), 130 mg/kg/day; in [7] (setting [30]), 25 ppm; in data set [7] (setting [31]) it was 100 ppm.

As to `CCOC(=O)CC(SP(=O)(OC)OC)C(=O)OCC` (stereo unspecified) [Malaoxon], the LEL in data set [8] (setting [32]) came out at 1 mg/kg/day; in [8] (group: systemic, systemic / pathology microscopic / stomach / mineralization + systemic / in life observation / food consumption / food consumption) it was 57 mg/kg/day. For the same compound, the LOAEL in data set [8] (setting [32]) is 1 mg/kg/day; in data set [8] (group: systemic, systemic / pathology microscopic / stomach / mineralization) it was 57 mg/kg/day. The NEL is under 1 mg/kg/day in data set [8] (setting [32]) and 1 mg/kg/day in [8] (setting [33]). Also, the NOAEL was under 1 mg/kg/day in data set [8] (setting [32]) and 1 mg/kg/day in data set [8] (setting [33]).

In [9] (setting [34]), `C=C(C)C(N)=O` [Methacrylamide] registered an LEL of 120 mg/kg/day, an LOAEL of over 180 mg/kg/day, an NEL of 60 mg/kg/day and an NOAEL of at least 180 mg/kg/day. Moreover, in data set [9] (setting [35]), the LOAEL is over 180 mg/kg/day, the NEL came out at 60 mg/kg/day and the NOAEL is at least 180 mg/kg/day. The compound further returned an LEL in data set [9] (group: maternal, systemic / organ weight / liver / relative to body weight) of 120 mg/kg/day.

Turning to `CCCCSP(=O)(SCCCC)SCCCC` [Tribufos], the LEL in data set [10] (setting [36]) was found to be 0.2 mg/kg/day; in data set [10] (setting [37]), 1.8 mg/kg/day; in [11] (setting [36]), 0.4 mg/kg/day; in data set [11] (setting [39]), 1.7 mg/kg/day; in [12] (setting [40]) it was 1.64 mg/kg/day; in data set [12] (setting [41]), 1.64 mg/kg/day. The LOAEL in data set [10] (setting [36]) is 0.2 mg/kg/day; in data set [10] (setting [37]) it was over 16.8 mg/kg/day; in [11] (setting [36]), 0.4 mg/kg/day; in [11] (group: systemic, systemic / hematology / erythrocyte (rbc) count differential / erythrocyte (rbc)), 1.7 mg/kg/day; in data set [12] (setting [40]), 1.64 mg/kg/day; in [12] (setting [41]), 1.64 mg/kg/day. The NEL in data set [10] (setting [36]) was under 0.2 mg/kg/day; in [10] (setting [37]) it was 0.2 mg/kg/day; in [11] (setting [38]), 0.1 mg/kg/day; in data set [11] (setting [39]) it was 0.4 mg/kg/day; in data set [12] (setting [40]) it was under 1.64 mg/kg/day; in [12] (setting [41]) it was under 1.64 mg/kg/day. The NOAEL is under 0.2 mg/kg/day in [10] (setting [36]); at least 16.8 mg/kg/day in [10] (setting [37]); 0.1 mg/kg/day in [11] (setting [38]); 0.4 mg/kg/day in data set [11] (setting [39]); under 1.64 mg/kg/day in data set [12] (setting [40]); under 1.64 mg/kg/day in data set [12] (setting [41]).
